Measurements taken from patent US20090318504A1, “Use of GAL3 receptor antagonists for the treatment of depression and/or anxiety and compounds useful in such methods” (priority 2001, published 2009).

Columns and labels:
human GAL2 receptor = target: T1, human GAL2 receptor (Homo sapiens, UniProt O43603); assay: Radioligand binding at cloned human GAL2 receptor; details: pyrimidines, read-out: Ki GalR2
T1 construct: expressed in transfected cells; membranes
T1 sequence (O43603 1-387): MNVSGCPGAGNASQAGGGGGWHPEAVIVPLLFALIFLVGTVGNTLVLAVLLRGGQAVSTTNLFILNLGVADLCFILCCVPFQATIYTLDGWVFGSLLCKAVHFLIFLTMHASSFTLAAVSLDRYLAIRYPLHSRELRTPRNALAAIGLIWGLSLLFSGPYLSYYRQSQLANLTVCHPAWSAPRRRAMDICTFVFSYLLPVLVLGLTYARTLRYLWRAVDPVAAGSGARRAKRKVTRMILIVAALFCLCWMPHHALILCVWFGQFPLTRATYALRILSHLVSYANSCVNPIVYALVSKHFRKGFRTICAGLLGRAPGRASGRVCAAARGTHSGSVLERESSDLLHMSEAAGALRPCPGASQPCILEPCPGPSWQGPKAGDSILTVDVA
Excerpt: (§1) In order to test compounds for selective binding to the human GAL3 receptor the cloned cDNAs encoding both the human and rat GALL and GAL2 receptors have been used. The cloning and assay methods for the human and rat GAL1 receptors may be found in PCT International Publication No. WO 95/22608, the contents of which are hereby incorporated by reference. The cloning and assay methods for the human and rat GAL2 receptors may be found in PCT International Publication No. WO 97/26853, the contents of which are hereby incorporated by reference.
(§2) The present invention provides for a method of determining the binding affinity of a GAL3 antagonist, wherein the GAL3 antagonist is dissolved in a “suitable solvent”. A “suitable solvent” means one which permits the measurement of binding affinity of the GAL3 antagonist to the human GAL3 receptor at concentrations less than 1 μM, preferably less than 100 nM. Examples of solvents include, but are not limited to, DMSO, ethanol, N,N-dimethylacetamide, or water. For indolones, the preferred solvent is 3% DMSO (final concentration in the assay). For pyrimidines, the preferred solvent is 1% ethanol/0.09% polypuronic acid F-127 (final concentration in the assay). For any other type of compounds, the preferred solvent is the solvent which permits the measurement of binding affinity of a GAL3 antagonist at the lowest concentration. Once a suitable solvent is ascertained for the binding assay of the human GAL3 receptor, the same solvent is used in assays to determine the binding affinity at the GAL1 receptor, the serotonin transporter, the norepinephrine transporter, and the dopamine transporter. A solvent of 0.4% DMSO is used in the central monoamine oxidase enzyme assay.
(§3) The binding properties of the pyrimidines of the present invention were evaluated at the cloned human galanin receptors, GAL1, GAL2, and GAL3, using protocols described herein.
(§4) The binding properties of the indolones of the present invention were evaluated at the cloned human galanin receptors, GAL1, GAL2, and GAL3, using protocols described herein.
(§5) LM(tk−) cells were stably transfected with the human GALL or GAL3 receptor. CHO cells were stably transfected with the human GAL2 receptor.
(§6) cDNAs for the human and rat GAL1, and human and rat GAL3 receptors were transfected with a G-418 resistant gene into the mouse fibroblast LM(tk−) cell line by a calcium phosphate transfection method (Cullen, 1987). Stably transfected cells were selected with G-418. Human and rat GAL2 receptors were similarly transfected into CHO cells.
Membranes were harvested from stably transfected LM(tk−) cells. Adherent cells were washed twice in ice-cold phosphate buffered saline (138 mM NaCl, 8.1 mM Na2HPO4, 2.5 mM KCl, 1.2 mM KH2PO4, 0.9 mM CaCl2, 0.5 mM MgCl2, pH 7.4) and lysed by sonication in ice-cold sonication buffer (20 mM Tris-HCl, 5 mM EDTA, pH 7.7). Large particles and debris were cleared by low speed centrifugation (200×g, 5 min, 4° C.). Membranes were collected from the supernatant fraction by centrifugation (32,000×g, 18 min, 4° C.), washed with ice-cold hypotonic buffer, and collected again by centrifugation (32,000×g, 18 min, 4° C.). The final membrane pellet was resuspended by sonication into a small volume of ice-cold binding buffer (~1 ml for every 5 plates: 10 mM NaCl, 20 mM HEPES, 0.22 mM KH2PO4, 1.26 mM CaCl2, 0.81 mM MgSO4, pH 7.4). Protein concentration was measured by the Bradford method (Bradford, 1976) using Bio-Rad Reagent, with bovine serum albumin as a standard. […]

human GAL3 receptor = target: T2, human GAL3 receptor (Homo sapiens, UniProt O60755); assay: Radioligand binding at cloned human GAL3 receptor; details: for Ki: pyrimidines, cloned human receptor, read-out: Ki GalR3
T2 construct: expressed in transfected cells; membranes
T2 sequence (O60755 1-368): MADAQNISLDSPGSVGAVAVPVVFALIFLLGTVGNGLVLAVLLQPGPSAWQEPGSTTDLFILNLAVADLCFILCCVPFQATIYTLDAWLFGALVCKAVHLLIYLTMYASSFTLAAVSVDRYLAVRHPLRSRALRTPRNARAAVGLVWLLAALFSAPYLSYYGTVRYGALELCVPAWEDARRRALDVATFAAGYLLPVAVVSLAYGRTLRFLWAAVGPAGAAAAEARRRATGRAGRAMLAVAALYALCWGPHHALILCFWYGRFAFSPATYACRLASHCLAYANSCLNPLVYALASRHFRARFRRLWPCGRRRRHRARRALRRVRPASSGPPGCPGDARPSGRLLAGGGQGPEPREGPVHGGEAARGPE
Description: as §2, §3, §4, §5, §6
Membranes were harvested from stably transfected LM(tk−) cells. Adherent cells were washed twice in ice-cold phosphate buffered saline (138 mM NaCl, 8.1 mM Na2HPO4, 2.5 mM KCl, 1.2 mM KH2PO4, 0.9 mM CaCl2, 0.5 mM MgCl2, pH 7.4) and lysed by sonication in ice-cold sonication buffer (20 mM Tris-HCl, 5 mM EDTA, pH 7.7). Large particles and debris were cleared by low speed centrifugation (200×g, 5 min, 4° C.). Membranes were collected from the supernatant fraction by centrifugation (32,000×g, 18 min, 4° C.), washed with ice-cold hypotonic buffer, and collected again by centrifugation (32,000×g, 18 min, 4° C.). The final membrane pellet was resuspended by sonication into a small volume of ice-cold binding buffer (~1 ml for every 5 plates: 10 mM NaCl, 20 mM HEPES, 0.22 mM KH2PO4, 1.26 mM CaCl2, 0.81 mM MgSO4, pH 7.4). Protein concentration was measured by the Bradford method (Bradford, 1976) using Bio-Rad Reagent, with bovine serum albumin as a standard. Membranes were held on ice for up to one hour and used fresh, or flash frozen and stored in liquid nitrogen. Membranes were prepared similarly from CHO cells.
Galanin Receptors Binding assays were performed according to the following published methods: human GAL3 (PCT International Publication No. WO 98/15570), human GAL1 (PCT International Publication No. WO 95/2260), human GAL2 (PCT International Publication No. WO 97/26853).
Binding data were analyzed using nonlinear regression and statistical techniques available in the GraphPAD Prism package (San Diego, Calif.). Enzymatic assay data were derived from a standard curve of reference compound data.
The selectivity ratios for compounds of the claimed invention were calculated from the binding data presented in Tables 1-4, Table 7 and Table 9 of the subject application. […]

human GAL1 receptor = target: T3, human GAL1 receptor (Homo sapiens, UniProt P47211); assay: Radioligand binding at cloned human GAL1 receptor; details: pyrimidines, read-out: Ki GalR1
T3 construct: expressed in transfected cells; membranes
T3 sequence (P47211 1-349): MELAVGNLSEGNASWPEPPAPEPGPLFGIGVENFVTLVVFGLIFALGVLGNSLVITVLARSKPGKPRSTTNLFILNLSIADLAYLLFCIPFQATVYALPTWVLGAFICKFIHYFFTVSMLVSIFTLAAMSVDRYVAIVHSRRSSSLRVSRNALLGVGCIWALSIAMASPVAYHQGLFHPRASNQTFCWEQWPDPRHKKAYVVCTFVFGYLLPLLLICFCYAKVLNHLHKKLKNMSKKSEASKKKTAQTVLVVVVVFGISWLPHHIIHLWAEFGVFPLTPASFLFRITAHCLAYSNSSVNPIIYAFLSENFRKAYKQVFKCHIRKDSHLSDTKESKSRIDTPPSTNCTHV
Excerpt: as §1, §2, §3, §4, §5, §6
Membranes were harvested from stably transfected LM(tk−) cells. […] Protein concentration was measured by the Bradford method (Bradford, 1976) using Bio-Rad Reagent, with bovine serum albumin as a standard. […]

[1] = target: norepinephrine transporter (Rattus norvegicus, UniProt Q9WTR4); assay: Binding at native NE transporter; details: rNE Uptk
Description: The binding properties of the compounds of the present invention were evaluated at one or more cloned receptors or native, tissue-derived transporters, using protocols described below.
The methods to determine binding affinity at native transporters are described in the following publications: 5HT transporter and NE transporter (Owens et al., 1997), and DA transporter (Javitch et al, 1984).

male Sprague-Dawley rats [2] = assay: Rat Forced Swim Test (FST); assay type: in vivo; details: for Overall profile in the Forced Swim Test: conclusion of the study, male Sprague-Dawley rats
male Sprague-Dawley rats [3] = assay: Rat Social Interaction Test (SIT); assay type: in vivo
male Sprague-Dawley rats [4] = details: ex vivo data (Leonard, 1996); cited from earlier work
[5] = rat FST, single p.o. administration, 10 mg/kg, 1 hr before test, listed as Flu0x, 10 mg/kg

Row | SMILES | Ki (human GAL2 receptor) | Ki (human GAL3 receptor) | Overall profile in the Forced Swim Test (male Sprague-Dawley rats [2]) | also measured
1 | Cc1ccc(N(c2ccc(C)cc2)c2cc(N3CCCCC3)nc(N)n2)cc1 [Example 4] | > 5000 nM | 627 nM | – | Ki (human GAL1 receptor): > 5 µM
2 | Cc1ccc(Nc2cc(N3CCCCC3)nc(N(C)CCc3c[nH]c4ccccc34)n2)cc1 [Example 11] | – | – | – | Ki [1]: > 50 µM
3 | CN(CCc1c[nH]c2ccccc12)c1nc(Nc2ccc(F)c(F)c2)cc(N2CCCCC2)n1 [Example 15] | – | – | – | Ki [1]: > 50 µM
4 | COCCN(c1ccc(C)cc1)c1cc(N2CCCCC2)nc(NCCc2c[nH]c3ccccc23)n1 [Example 19] | 1770 nM | 79 nM | – | Ki (human GAL1 receptor): > 5 µM
5 | Cc1ccc(Nc2cc(N3CCCCC3)nc(N(C)CCc3ccccc3)n2)cc1 [Example 22] | – | – | has antidepressant properties | Ki [1]: 13.1 µM
6 | Cc1ccc(Nc2cc(N3CCCCC3)nc(N3CCN(c4ncccc4C(F)(F)F)CC3)n2)cc1 [Example 34] | – | – | produces an effect in the FST that resembles that of antidepressants | Ki [1]: > 50 µM; Immobility (male Sprague-Dawley rats [2]; rat FST, single p.o. administration, 10 mg/kg, 1 hr before test, 10 mg/kg): not significantly decrease in immobility; Rearing (male Sprague-Dawley rats [3]; SIT, single p.o., 0.03 mg/kg): 27 ± 3; Overall profile in the Social Interaction Test (male Sprague-Dawley rats [3]; conclusion of the study, male rats): produces an anxioltyic action in the social interaction test; GAL3/GAL1 binding ratio (Ki GAL1 divided by Ki GAL3) (human GAL3 receptor): 39 fold
7 | CN(C)c1cc(N)nc(N(c2ccccc2)c2ccc(Cl)cc2)n1 [Example 58] | > 5000 nM | 783 nM | – | Ki (human GAL1 receptor): > 5 µM
8 | Cc1ccc(Nc2cc(N(C)C)nc(N3CCc4ccccc43)n2)cc1 [Example 75] | 245 nM | – | – | –
9 | CN(C)c1cc(Nc2ccc3ccccc3c2)nc(N(C)CCc2c[nH]c3ccccc23)n1 [Example 79] | 1660 nM | 190 nM | – | Ki (human GAL1 receptor): 3.8 µM
10 | O=C1C(=Nc2ccc(C(F)(F)F)cc2)c2ccccc2N1c1ccccc1 [Example 95, 1-PHENYL-3-[[4-(TRIFLUOROMETHYL)PHENYL]IMINO]-1,3-DIHYDRO-2H-INDOL-2-ONE] | – | – | does not produce antidepressant-like actions in the forced swim test | –
11 | O=C1C(=Nc2ccc(Br)cc2)c2ccccc2N1c1ccccc1 [Example 98, 3-[(4-BROMOPHENYL)IMINO]-1-PHENYL-1,3-DIHYDRO-2H-INDOL-2-ONE] | – | – | produces a profile in the modified Lucki version of the FST resembling that of the clinically established antidepressant fluoxetine | Climbing (male Sprague-Dawley rats [2]; rat FST, single p.o. administration, 3 mg/kg, 1 hr before test, 3 mg/kg): significantly greater increase in climbing compared to 30 mg/kg of Example 98
12 | O=C1C(=Nc2cc(Cl)cc(Cl)c2)c2ccccc2N1c1ccccc1 [Example 103, 3-[(3,5-DICHLOROPHENYL)IMINO]-1-PHENYL-1,3-DIHYDRO-2H-INDOL-2-ONE] | – | – | has antidepressant properties | –
13 | CN(C)c1cc(Nc2ccc(Cl)c(Cl)c2)nc(N2CCN(Cc3ccccc3)CC2)n1 [Example 151] | – | – | produces behavioral effects in the FST in rats that resemble those of antidepressants | –
14 | Cc1ccc(Nc2cc(N(C)C)nc(N3CCN(c4ncccc4C#N)CC3)n2)cc1 [Example 241] | – | 216 nM | – | –
15 | O=C1/C(=N\c2ccc(Cl)c(Cl)c2)c2ccccc2N1c1ccsc1 [Example 272, (3Z)-3-[(3,4-DICHLOROPHENYL)IMINO]-1-(3-THIENYL)-1,3-DIHYDRO-2H-INDOL-2-ONE] | – | – | has the profile of an antidepressant | –
16 | CNCCC(Oc1ccc(C(F)(F)F)cc1)c1ccccc1 (stereo not drawn) [Fluoxetine, fluoxetine, reference compound] | – | – | – | p.o. dose required to inhibit 5-HT uptake in the CNS by 50% (male Sprague-Dawley rats [4]): 7 mg/kg; Climbing (male Sprague-Dawley rats [2]; [5]): 4.5 ± 1.2 counts; Diving (male Sprague-Dawley rats [2]; [5]): 1.0 ± 0.8 counts
